Laboratory results taken from patent US20250320496A1, “MODULATION OF ABCB11 GENE TRANSCRIPTION USING ANTISENSE OLIGONUCLEOTIDES TARGETING REGULATORY RNAS” (CAMP4 Therapeutics Corporation, priority 2022, published 2025).
Strand notation (5' to 3'): a small letter for the sugar, then the base; units joined by * are phosphorothioate-linked, units joined directly phosphodiester-linked; [ ] holds rarer units or linkages, { } end groups; capitals alone tell only the bases. e = 2'-O-(2-methoxyethyl) (MOE); l = locked nucleic acid (LNA); [5mC] = 5-methylcytosine; d = 2'-deoxy (DNA)

System: human ABCB11 mRNA
Test: ASO treatment of primary human hepatocytes (PHH), ABCB11 mRNA by RT-qPCR normalized to B2M
Format: cell-based
Conditions: primary human hepatocytes; for ABCB11 mRNA FC (5 μM ASO vs. UNT): normalized to untreated PHHs (UNT); for ABCB11 FC mRNA (5 μM ASO vs. untreated): 5 μM ASO with PO-modifications, normalized to untreated hepatocytes
How it was run: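 ABCB11 mRNA was quantified by Taqman RT-qPCR relative to B2M and expressed as fold over untreated cells. Cells were cryopreserved primary human hepatocytes given ASO in Matrigel-supplemented medium 4 h after plating, at 1.25, 2.5, 5 or 10 μM (5 μM for screening), and harvested after 72 hrs.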

Row | Substance | ABCB11 mRNA FC (5 μM ASO vs. UNT) [fold change] | ABCB11 FC mRNA (5 μM ASO vs. untreated) [fold change]
1 | CO-7164 (antisense eA*eT*eT*e[5mC]*eT*eA*e[5mC]*eA*eG*eA*eG*eG*eG*eA*eG*e[5mC]*eA*eT*eA*eA) | 1.178 | 
2 | CO-7111 (TACATTTAGAGACAAAGAATCGCT; fully MOE, PS/PO backbone, 5-methylcytosine; listed as RNA; modified_base 1..24: mod_base = OTHER; note = Phosphorothioate linkage; note = 2'-O-(2-methoxyethyl) ribonucleotide; modified_base 3: mod_base = OTHER; note = 5-methyl cytidine; modified_base 13: mod_base) | 1.027 | 
3 | CO-12756 (antisense eG*eTeG*eAeG*eGe[5mC]*eAeT*e[5mC]eA*eGeG*eTeA*eAeG*eTeT*e[5mC]) |  | 1.33
4 | CO-11200 (antisense eT*eG*eTeTeTeTeG*e[5mC]*eT*eT*eG*eG*eT*e[5mC]eAeAeGeA*eG*eG) |  | 1.34
5 | CO-7030 (antisense AGAATCGCTGTGGCAGTTAA; fully 2'-MOE, mixed PS/PO, 5-methylcytosine; listed as RNA; modified_base 1..20: mod_base = OTHER; note = Phosphorothioate linkage; note = 2'-O-(2-methoxyethyl) ribonucleotide; modified_base 6: mod_base = OTHER; note = 5-methyl cytidine; modified_base 8: mod_base) | 1.372 | 
6 | CO-4494 (antisense eG*e[5mC]*eA*eG*eG*eA*eT*eG*eA*eA*eG*eT*eT*eT*eA*e[5mC]*eA*eA*eG*eG) | 1.12 | 
7 | CO-7151: derivative ASO with additional chemical modifications based on parent ASO CO-4517 (antisense e[5mC]*e[5mC]*eT*eT*eA*lG*dG*dA*lG*dG*dA*dT*dT*lA*dT*dT*lT*eA*eA*e[5mC]*e[5mC]*eT) | 1.498 | 
8 | CO-7170 (antisense eT*e[5mC]*eT*eT*eA*eT*eT*eT*eG*eG*e[5mC]*eG*eT*eT*eA*eT*eT*eA*eA*eT) | 1.477 | 
9 | CO-3995 (antisense eG*eT*e[5mC]*eT*eA*eG*eG*eA*eG*e[5mC]*eT*eT*e[5mC]*eT*eG*eT*eT*eT*eA*e[5mC]) | 1.683 | 
10 | CO-4527 (antisense eG*eA*eG*e[5mC]*eA*eT*e[5mC]*eA*eG*eG*eT*eA*e[5mC]*e[5mC]*eA*eT*eG*eA*e[5mC]*eA) | 0.97 | 
11 | CO-7192 (eT*eG*eG*l[5mC]*eG*eT*eT*lA*eT*eT*eA*lA*eT*eT*e[5mC]*lT*eA*e[5mC]*eA*eG; antisense) | 1.591 | 
12 | CO-6986 (antisense eT*eG*eG*lA*eT*dG*dT*lA*dG*dA*dT*lG*dA*dA*dT*lG*eG*e[5mC]*eA*eA) | 0.998 | 
13 | CO-6669 (antisense eG*eT*eT*eT*eA*eG*eT*eT*eG*eA*e[5mC]*eT*eG*e[5mC]*eA*eG*eA*eG*eG*eG) | 1.291 | 
14 | CO-7097 (eA*e[5mC]*e[5mC]*e[5mC]*l[5mC]*e[5mC]*e[5mC]*eT*e[5mC]*lA*e[5mC]*e[5mC]*eT*eT*lG*eG*eT*eT*e[5mC]*e[5mC]; antisense) | 1.028 | 
15 | CO-7012 (antisense eT*eG*eT*eG*eG*dA*dT*lG*dT*dA*lG*dA*dT*lG*dA*dA*lT*dG*dG*e[5mC]*eA*eA*eG*eG) | 0.985 | 
16 | CO-7060 (eT*e[5mC]*eT*eG*lG*dA*dA*dA*lA*dT*dA*dA*lT*dG*d[5mC]*e[5mC]*lT*eT*eT*e[5mC]; antisense) | 1.17 | 
17 | CO-4521 (antisense eG*e[5mC]*eA*eT*eT*eT*e[5mC]*eA*eG*eA*eG*e[5mC]*eA*e[5mC]*eA*eG*eA*eG*eT*eG) | 1.092 | 
18 | CO-7109 (eA*e[5mC]*eA*eT*eT*lT*dA*dG*lA*dG*dA*d[5mC]*dA*lA*dA*dG*lA*eA*eT*e[5mC]*eG*e[5mC]; antisense) | 1.043 | 
19 | CO-11238 (antisense eG*eT*eGeG*lA*eG*e[5mC]*eAeA*lA*e[5mC]*eT*eAeG*lG*e[5mC]*eA*e[5mC]eT*eG) |  | 1.26
20 | CO-4483 (antisense eT*e[5mC]*eA*e[5mC]*eA*eA*eA*eT*eA*eG*eA*eT*eT*eG*eA*eG*eG*eG*eT*e[5mC]) | 1.041 | 
21 | CO-7069 (e[5mC]*eA*eT*lT*eT*dA*dG*lA*dG*dA*d[5mC]*lA*dA*dA*dG*lA*eA*eT*e[5mC]*eG; antisense) | 1.011 | 
22 | CO-4517: parent ASO targeting a human ABCB11 regRNA, chemically modified to CO-7141 etc. (antisense e[5mC]*eT*eT*eA*eG*eG*eA*eG*eG*eA*eT*eT*eA*eT*eT*eT*eA*eA*e[5mC]*e[5mC]) | 0.914 | 
23 | CO-12746 (antisense eG*eT*eG*eAeGeGe[5mC]*eA*eT*e[5mC]*eA*eG*eG*eTeAeAeG*eT*eT*e[5mC]) |  | 1.09
24 | CO-6983 (antisense eA*eG*eA*eA*eG*eA*e[5mC]*eA*eG*eA*eA*eG*eT*eG*eA*eG*eG*e[5mC]*eA*eT) | 1.065 | 

Row | Substance | ABCB11 mRNA FC (5 μM ASO vs. UNT) [fold change] | ABCB11 FC mRNA (5 μM ASO vs. untreated) [fold change]
25 | CO-4528 (antisense e[5mC]*eT*eG*eG*eG*eA*eT*eA*eG*eG*eG*eT*eG*eG*eA*eT*e[5mC]*eT*eA*e[5mC]) | 0.883 | 
26 | CO-4018 (antisense eA*eT*eG*eG*e[5mC]*e[5mC]*eG*eA*eA*eT*eA*eG*eA*eT*eT*eG*eA*eA*eT*eA) | 1.124 | 
27 | CO-7042 (antisense e[5mC]*eT*eT*eG*eG*eT*e[5mC]*eA*eA*eG*eA*eG*eG*eA*eA*eA*eG*eA*eA*e[5mC]) | 1.132 | 
28 | CO-4488 (antisense eA*eA*e[5mC]*eA*eT*eG*eT*e[5mC]*eA*eG*eA*e[5mC]*eA*eG*eT*eA*eG*eT*eT*e[5mC]) | 1.084 | 
29 | CO-11213 (antisense eG*eTlGeGlAeGl[5mC]*eA*lA*eA*l[5mC]*eT*lA*eGlGe[5mC]lAe[5mC]eT*eG) |  | 1.95
30 | CO-11242 (antisense eG*eTeG*eG*lAeG*e[5mC]*eAeA*lA*e[5mC]eT*eA*eGlG*e[5mC]*eAe[5mC]*eT*eG) |  | 1.49
31 | CO-6995 (antisense eG*eT*eG*eA*eG*lG*d[5mC]*dA*lT*d[5mC]*dA*lG*dG*dT*lA*eA*eG*eT*eT*e[5mC]) | 1.277 | 
32 | CO-12751 (antisense eG*eT*eG*eA*eGeG*e[5mC]*eA*eTe[5mC]*eA*eG*eGeT*eA*eA*eGeT*eT*e[5mC]) |  | 0.93
33 | CO-7191: derivative ASO with additional chemical modifications based on parent ASO CO-4535 (eT*eG*eG*e[5mC]*lG*eT*eT*eA*lT*eT*eA*eA*lT*eT*e[5mC]*eT*lA*e[5mC]*eA*eG) | 1.676 | 
34 | CO-7043 (antisense eT*eT*eG*e[5mC]*eT*eT*eG*eG*eT*e[5mC]*eA*eA*eG*eA*eG*eG*eA*eA*eA*eG) | 1.1 | 
35 | CO-6671 (antisense eT*eT*e[5mC]*eT*eG*eT*eA*eG*eT*eT*eT*eA*eG*eT*eT*eG*eA*e[5mC]*eT*eG) | 1.163 | 
36 | CO-4021 (antisense eG*eT*e[5mC]*eT*eT*e[5mC]*eT*eT*eT*eA*eT*eA*eG*e[5mC]*eA*eA*eT*eG*e[5mC]*eT) | 1.301 | 
37 | CO-7108 (eA*e[5mC]*eA*eT*eT*dT*dA*dG*eA*dG*dA*d[5mC]*dA*eA*dA*dG*dA*eA*eT*e[5mC]*eG*e[5mC]; antisense) | 1.101 | 
38 | CO-6972 (antisense eA*eA*eA*eT*eG*eG*eG*eT*eG*eT*eG*eG*eA*eT*eG*eT*eA*eG*eA*eT) | 1.207 | 
39 | CO-7000 (antisense eG*eT*lG*eA*eG*lG*e[5mC]*eA*lT*e[5mC]*eA*lG*eG*eT*lA*eA*eG*lT*eT*e[5mC]) | 1.203 | 
40 | CO-4508 (antisense eG*eT*eA*eG*eG*eA*eA*eG*eT*eT*eG*eA*eA*eT*eG*eA*eG*eT*eT*eG) | 1.185 | 
41 | CO-7058 (antisense eT*e[5mC]*eT*eG*eG*lA*dA*dA*lA*dT*dA*lA*dT*dG*l[5mC]*e[5mC]*eT*eT*eT*e[5mC]) | 1.052 | 
42 | CO-11225 (antisense eG*eTlGeGeAlGe[5mC]*eA*lA*eA*e[5mC]*lT*eA*eGlGe[5mC]eAl[5mC]eT*eG) |  | 1.66
43 | CO-4503 (antisense eA*eT*eT*eG*eT*eA*eG*eG*eT*eG*e[5mC]eT*eG*e[5mC]*eG*eG*eG*eT*eA*eT) | 1.202 | 
44 | CO-4048 (antisense eA*eG*e[5mC]*eA*eT*e[5mC]*eT*eG*eG*eA*eT*e[5mC]*e[5mC]*eT*eG*e[5mC]*eA*eA*e[5mC]*e[5mC]) | 1.448 | 
45 | CO-7048 (antisense eT*eG*eG*eA*eG*eT*eT*eG*eT*eG*eT*eT*eT*eT*eG*e[5mC]*eT*eT*eG*eG) | 1.175 | 
46 | CO-7200 (eA*eG*eG*eT*eG*eG*eA*eG*e[5mC]*eA*eA*eA*e[5mC]*eT*eA*eG*eG*e[5mC]*eA*e[5mC]*eT*eG*eA*eG; antisense) | 1.277 | 
47 | CO-4028 (antisense eT*eT*eA*eA*e[5mC]*eT*e[5mC]*eT*eT*eA*e[5mC]*eT*eT*eT*eG*eT*eG*eG*eA*eG) | 1.418 | 
